From PubChem BioAssay AID212 (DTP/NCI, 2004) come the findings set out here.

For the test, the system named is BDF1 mice, colon carcinoma 38 sc, T/C %. The test is described as follows: NCI In Vivo Anticancer Drug Screen. Data for tumor model Colon Carcinoma 38 (subcutaneous) in B6D2F1 (BDF1) mice. As to conditions: endpoint: median tumor weight (est.), higher = larger tumour. A digest of the protocol:
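Compound antitumor activity was assessed in mice carrying transplantable tumors. Survival or tumor size was recorded, and each value is the treated-group measurement divided by that of the vehicle-treated control group.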

Setting [1] is: dose: 100.0 mg/kg/injection, schedule: Q07DX002 (ip), vehicle: saline with Tween-80.
[2] abbreviates: dose: 200.0 mg/kg/injection, schedule: Q07DX002 (ip), vehicle: saline with Tween-80.
The mark [3] stands for this setting: dose: 400.0 mg/kg/injection, schedule: Q07DX002 (ip), vehicle: saline with Tween-80.
Setting [4] is: dose: 800.0 mg/kg/injection, schedule: Q07DX002 (ip), vehicle: saline with Tween-80.
Setting [5] is: dose: 25.0 mg/kg/injection, schedule: Q07DX002 (ip), vehicle: saline with Tween-80.
Where [6] appears, read: dose: 100.0 mg/kg/injection, schedule: Q07DX002 (ip), vehicle: saline.
Setting [7] is: dose: 200.0 mg/kg/injection, schedule: Q07DX002 (ip), vehicle: saline.
The mark [8] stands for this setting: dose: 400.0 mg/kg/injection, schedule: Q07DX002 (ip), vehicle: saline.
Setting [9] is: dose: 50.0 mg/kg/injection, schedule: Q07DX002 (ip), vehicle: saline with Tween-80.
[10] abbreviates: dose: 1600.0 mg/kg/injection, schedule: Q07DX002 (ip), vehicle: saline.

Several values for one entry are separate records, joined by “and”; a condition that tells them apart may be missing. Identical values can stand only once. Records with an inconclusive call do not appear.

In the case of `CC(C)[C@](O)(C(=O)OCC1=CC[N+]2([O-])CC[C@@H](O)[C@@H]12)[C@H](C)O` (stereo partly specified), the T/C is 66 % of control (dose: 50.0 mg/kg/injection, schedule: Q07DX003 (ip), vehicle: water); 185 % of control (dose: 100.0 mg/kg/injection, schedule: Q07DX003 (ip), vehicle: water); 73 % of control (dose: 200.0 mg/kg/injection, schedule: Q07DX002 (ip), vehicle: water); 123 % of control (dose: 200.0 mg/kg/injection, schedule: Q07DX003 (ip), vehicle: water); 92 % of control (dose: 400.0 mg/kg/injection, schedule: Q07DX002 (ip), vehicle: water); 71 % of control (dose: 400.0 mg/kg/injection, schedule: Q07DX003 (ip), vehicle: water). The T/C (dose: 800.0 mg/kg/injection, schedule: Q07DX002 (ip), vehicle: water) is 64 % of control; the T/C (dose: 800.0 mg/kg/injection, schedule: Q07DX003 (ip), vehicle: water) is 68 % of control; the T/C (dose: 1600.0 mg/kg/injection, schedule: Q07DX002 (ip), vehicle: water) was 48 % of control.
For `O=C(N[C@H](CO)[C@H](O)c1ccc([N+](=O)[O-])cc1)C(Cl)Cl`, the T/C under setting [1] is 60 % of control; the T/C (dose: 112.0 mg/kg/injection, schedule: Q07DX002 (ip), vehicle: saline with Tween-80) is 72 % of control; the T/C under setting [2] is 91 % of control; the T/C (dose: 225.0 mg/kg/injection, schedule: Q07DX002 (ip), vehicle: saline + Tween-80 + alcohol) is 44 % of control; the T/C (dose: 225.0 mg/kg/injection, schedule: Q07DX002 (ip), vehicle: saline with Tween-80) is 95 % of control; the T/C under setting [3] is 112 % of control. The T/C reads like this: (dose: 450.0 mg/kg/injection, schedule: Q07DX002 (ip), vehicle: saline + Tween-80 + alcohol) 85 % of control; (dose: 450.0 mg/kg/injection, schedule: Q07DX002 (ip), vehicle: saline with Tween-80) 87 % of control and 94 % of control; under setting [4], 68 % of control; (dose: 900.0 mg/kg/injection, schedule: Q07DX002 (ip), vehicle: saline + Tween-80 + alcohol) 41 % of control; (dose: 900.0 mg/kg/injection, schedule: Q07DX002 (ip), vehicle: saline with Tween-80) 118 % of control.
On to `OCCOCC(F)(F)F`, for which the T/C reads like this: under setting [5], 86 % of control; under setting [2], 120 % of control and 104 % of control; under setting [3], 116 % of control and 102 % of control.
For the molecule `CCN1/C(=C/C=C/C=C/c2sc3ccccc3[n+]2CC)Sc2ccccc21`, the T/C was 151 % of control (dose: 0.03 mg/kg/injection, schedule: Q07DX002 (ip), vehicle: saline); 59 % of control (dose: 0.03 mg/kg/injection, schedule: Q07DX002 (ip), vehicle: suspension in saline); 167 % of control (dose: 0.06 mg/kg/injection, schedule: Q07DX002 (ip), vehicle: saline); 104 % of control (dose: 0.06 mg/kg/injection, schedule: Q07DX002 (ip), vehicle: suspension in saline); 122 % of control (dose: 0.12 mg/kg/injection, schedule: Q07DX002 (ip), vehicle: saline); 100 % of control (dose: 0.12 mg/kg/injection, schedule: Q07DX002 (ip), vehicle: suspension in saline). The T/C runs as follows: (dose: 0.25 mg/kg/injection, schedule: Q07DX002 (ip), vehicle: suspension in saline) 104 % of control; (dose: 0.5 mg/kg/injection, schedule: Q07DX002 (ip), vehicle: saline) 162 % of control; (dose: 0.5 mg/kg/injection, schedule: Q07DX002 (ip), vehicle: suspension in saline) 109 % of control; (dose: 1.0 mg/kg/injection, schedule: Q07DX002 (ip), vehicle: saline) 197 % of control.
In the case of `C=CC(=O)NCNC(=O)C=C`, the T/C was 164 % of control (dose: 12.5 mg/kg/injection, schedule: Q07DX002 (ip), vehicle: saline); 100 % of control under setting [6]; 89 % of control and 97 % of control under setting [7]; 35 % of control under setting [8].
Turning to `C[C@]12CC[C@@H]3c4ccc(O)cc4CC[C@H]3[C@@H]1CC[C@@H]2O`, the T/C is 83 % of control (dose: 6.25 mg/kg/injection, schedule: Q07DX002 (ip), vehicle: Klucel (hydroxypropylcellulose) (HPC)); 108 % of control and 249 % of control (dose: 12.5 mg/kg/injection, schedule: Q07DX002 (ip), vehicle: Klucel (hydroxypropylcellulose) (HPC)); 282 % of control and 99 % of control (dose: 25.0 mg/kg/injection, schedule: Q07DX002 (ip), vehicle: Klucel (hydroxypropylcellulose) (HPC)); 260 % of control (dose: 50.0 mg/kg/injection, schedule: Q07DX002 (ip), vehicle: Klucel (hydroxypropylcellulose) (HPC)); 282 % of control (dose: 100.0 mg/kg/injection, schedule: Q07DX002 (ip), vehicle: Klucel (hydroxypropylcellulose) (HPC)); 117 % of control and 271 % of control (dose: 200.0 mg/kg/injection, schedule: Q07DX002 (ip), vehicle: Klucel (hydroxypropylcellulose) (HPC)).
`CCN(CC)CCNc1ccc(C)c2sc3ccc(O)cc3c(=O)c12`: the T/C is 92 % of control under setting [5], 74 % of control under setting [9], 68 % of control under setting [1] and 33 % of control under setting [2].
For the molecule `Nc1n[nH]c(N)n1`, the T/C reads like this: under setting [6], 84 % of control and 90 % of control and 105 % of control; (dose: 100.0 mg/kg/injection, schedule: Q07DX003 (ip), vehicle: saline with Tween-80) 56 % of control; under setting [8], 65 % of control and 69 % of control and 71 % of control; (dose: 400.0 mg/kg/injection, schedule: Q07DX003 (ip), vehicle: saline with Tween-80) 110 % of control; (dose: 800.0 mg/kg/injection, schedule: Q07DX003 (ip), vehicle: saline with Tween-80) 102 % of control; under setting [10], 71 % of control and 73 % of control and 81 % of control.
As for `C=C(OC1C(C)=C2C(C1OC(=O)CCCCCCC)C(C)(OC(C)=O)CC(OC(=O)CCC)C1(O)C2OC(=O)C1(C)O)/C(C)=C/C` (stereo unspecified), the T/C (dose: 0.21 mg/kg/injection, schedule: Q07DX002 (ip), vehicle: Klucel (hydroxypropylcellulose) (HPC)) is 35 % of control; the T/C (dose: 0.84 mg/kg/injection, schedule: Q07DX002 (ip), vehicle: Klucel (hydroxypropylcellulose) (HPC)) was 82 % of control and 86 % of control and 92 % of control.
`O=c1[nH]c(=O)n(C2CC(O)C(CO)O2)cc1C(F)(F)F` (stereo unspecified): the T/C (dose: 10.0 mg/kg/injection, schedule: Q07DX002 (ip), vehicle: saline) was 83 % of control; the T/C (dose: 20.0 mg/kg/injection, schedule: Q07DX002 (ip), vehicle: saline) is 77 % of control; the T/C under setting [9] is 100 % of control; the T/C (dose: 50.0 mg/kg/injection, schedule: Q07DX002 (ip), vehicle: saline) was 114 % of control; the T/C under setting [1] is 117 % of control; the T/C under setting [6] was 84 % of control. Also, the T/C is, setting by setting: (dose: 160.0 mg/kg/injection, schedule: Q07DX002 (ip), vehicle: saline) 118 % of control; under setting [2], 101 % of control; under setting [7], 95 % of control; (dose: 320.0 mg/kg/injection, schedule: Q07DX002 (ip), vehicle: saline) 156 % of control; under setting [3], 94 % of control; under setting [4], 105 % of control. Further, the T/C reads like this: (dose: 800.0 mg/kg/injection, schedule: Q07DX002 (ip), vehicle: saline) 90 % of control; (dose: 1600.0 mg/kg/injection, schedule: Q07DX002 (ip), vehicle: saline with Tween-80) 108 % of control; under setting [10], 41 % of control.
Regarding `CCOC(=O)[C@]1(Br)CC[C@@]1(Br)C(=O)OCC`, the T/C is, setting by setting: (dose: 12.5 mg/kg/injection, schedule: Q07DX002 (ip), vehicle: saline with Tween-80) 76 % of control; under setting [9], 71 % of control and 75 % of control; under setting [2], 78 % of control and 95 % of control and 96 % of control; under setting [3], 79 % of control and 80 % of control and 97 % of control; under setting [4], 113 % of control.
Turning to `NC1CCCCC1N.O=C1C=CC(=C(c2ccc(O)cc2)c2ccccc2S(=O)(=O)[O-])C=C1.O=[N+]([O-])[O-].[Pt+4]`, the T/C (dose: 1.56 mg/kg/injection, schedule: Q07DX002 (ip), vehicle: saline) is 14 % of control.
As for `[I][Hg][CH2]C1COC([CH2][Hg][I])CO1` (stereo unspecified), the T/C is 67 % of control (dose: 6.25 mg/kg/injection, schedule: Q07DX002 (ip), vehicle: suspension in saline) and 120 % of control (dose: 50.0 mg/kg/injection, schedule: Q07DX002 (ip), vehicle: suspension in saline).
For `CCC(CC)COC(=O)c1ccccc1C(=O)OCC(CC)CC`, the T/C was 71 % of control under setting [5], 92 % of control under setting [9] and 122 % of control under setting [3].
